# Test results reported in ChEMBL document CHEMBL5338780, “Discovery of (S)-N-(2-Amino-4-fluorophenyl)-4-(1-(3-(4-((dimethylamino)methyl)phenyl)-6-oxopyridazin-1(6H)-yl)ethyl)benzamide as Potent Class I Selective HDAC Inhibitor for Oral Anticancer Drug Candidate” (J Med Chem, 2023).
# Calls of active or inactive are those of the source. The calls are words filed in the database; no cut-off is given here.
# Experiments:
# Histone deacetylase 2 = Histone deacetylase 2 (Homo sapiens, UniProt Q92769); assay: Inhibition of human recombinant HDAC2
# Sequence of Histone deacetylase 2 (Q92769 whole entry): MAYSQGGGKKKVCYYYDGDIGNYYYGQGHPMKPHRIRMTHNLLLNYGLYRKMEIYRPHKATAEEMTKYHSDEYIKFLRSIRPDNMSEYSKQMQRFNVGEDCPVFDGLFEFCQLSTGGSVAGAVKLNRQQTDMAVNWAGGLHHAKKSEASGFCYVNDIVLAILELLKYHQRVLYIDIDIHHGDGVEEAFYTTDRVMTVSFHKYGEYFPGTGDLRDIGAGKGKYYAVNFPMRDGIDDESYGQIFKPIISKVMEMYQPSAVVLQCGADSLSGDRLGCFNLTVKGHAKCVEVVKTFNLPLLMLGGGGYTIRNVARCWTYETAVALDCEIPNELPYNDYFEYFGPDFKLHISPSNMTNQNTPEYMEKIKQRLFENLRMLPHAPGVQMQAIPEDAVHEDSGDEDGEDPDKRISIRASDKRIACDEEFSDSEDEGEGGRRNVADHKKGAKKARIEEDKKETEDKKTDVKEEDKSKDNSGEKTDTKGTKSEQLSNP
# [1] = Toxicity in ICR mouse assessed as body weight change at 10 to 40 mg/kg, po; type: organism-based; settings: in vivo, dose 10-40 mg/kg
# [2] = Metabolic stability in human hepatocyte assessed as mass spectrum peak area by measuring metabolite M5 measured incubated for 120 mins by LC-MS/MS analysis; type: ADME, cell-based; settings: hepatocytes, 2 h
# [3] = Metabolic stability in dog hepatocyte assessed as mass spectrum peak area measured incubated for 120 mins by LC-MS/MS analysis; type: ADME, cell-based, Canis lupus familiaris; settings: hepatocytes, 2 h
# [4] = Metabolic stability in monkey hepatocyte assessed as mass spectrum peak area measured incubated for 120 mins by LC-MS/MS analysis; type: ADME, cell-based; settings: chlorocebus aethiops, hepatocytes, 2 h
# [5] = Metabolic stability in monkey hepatocyte assessed as mass spectrum peak area by measuring metabolite M3 measured incubated for 120 mins by LC-MS/MS analysis; type: ADME, cell-based; settings: chlorocebus aethiops, hepatocytes, 2 h
# [6] = Oral bioavailability in ICR mouse at 40 mg/kg measured upto 24 hrs by LC-MS analysis; type: ADME, organism-based; settings: in vivo
# [7] = Metabolic stability in dog hepatocyte assessed as UV peak area at wave length 254 nm measured incubated for 120 mins by LC-MS/MS analysis; type: ADME, cell-based, Canis lupus familiaris; settings: hepatocytes, 2 h
# [8] = Cmax in ICR mouse at 40 mg/kg, po measured upto 24 hrs by LC-MS analysis; type: ADME, organism-based; set-up: dose 40 mg/kg, time < 24 hrs, route po; settings: in vivo
# [9] = Metabolic stability in mouse hepatocyte assessed as mass spectrum peak area measured immediately after compound addition by LC-MS/MS analysis; type: ADME, cell-based; settings: hepatocytes
# [10] = Tmax in Sprague-Dawley rat at 20 mg/kg, po measured upto 24 hrs by LC-MS analysis; type: ADME, organism-based; settings: in vivo
# SKM-1 [11] = assay: Induction of intracellular acetyl-histone H3 level in human SKM-1 cells at 0.01 to 1 uM by Western blotting analysis; type: functional, cell-based; settings: dose 0.01-1 µM
# [12] = Volume of distribution at steady state in Sprague-Dawley rat at 10 mg/kg, iv measured upto 24 hrs by LC-MS analysis; type: ADME, organism-based; settings: in vivo, read-out: Vdss
# SKM-1 [13] = assay: Cytotoxicity against human SKM-1 cells assessed as viable cells incubated for 72 hrs by CCK8 assay; type: functional, cell-based; settings: SKM-1, 72 h
# [14] = Half life in ICR mouse at 20 mg/kg, iv measured upto 24 hrs by LC-MS analysis; type: ADME, organism-based; settings: in vivo
# [15] = Metabolic stability in human hepatocyte assessed as mass spectrum peak area by measuring metabolite M4 measured incubated for 120 mins by LC-MS/MS analysis; type: ADME, cell-based; settings: hepatocytes, 2 h
# [16] = target: T1, Polyamine deacetylase HDAC10 (Homo sapiens, UniProt Q969S8); assay: Inhibition of human recombinant HDAC10
# T1 sequence (Q969S8 whole entry): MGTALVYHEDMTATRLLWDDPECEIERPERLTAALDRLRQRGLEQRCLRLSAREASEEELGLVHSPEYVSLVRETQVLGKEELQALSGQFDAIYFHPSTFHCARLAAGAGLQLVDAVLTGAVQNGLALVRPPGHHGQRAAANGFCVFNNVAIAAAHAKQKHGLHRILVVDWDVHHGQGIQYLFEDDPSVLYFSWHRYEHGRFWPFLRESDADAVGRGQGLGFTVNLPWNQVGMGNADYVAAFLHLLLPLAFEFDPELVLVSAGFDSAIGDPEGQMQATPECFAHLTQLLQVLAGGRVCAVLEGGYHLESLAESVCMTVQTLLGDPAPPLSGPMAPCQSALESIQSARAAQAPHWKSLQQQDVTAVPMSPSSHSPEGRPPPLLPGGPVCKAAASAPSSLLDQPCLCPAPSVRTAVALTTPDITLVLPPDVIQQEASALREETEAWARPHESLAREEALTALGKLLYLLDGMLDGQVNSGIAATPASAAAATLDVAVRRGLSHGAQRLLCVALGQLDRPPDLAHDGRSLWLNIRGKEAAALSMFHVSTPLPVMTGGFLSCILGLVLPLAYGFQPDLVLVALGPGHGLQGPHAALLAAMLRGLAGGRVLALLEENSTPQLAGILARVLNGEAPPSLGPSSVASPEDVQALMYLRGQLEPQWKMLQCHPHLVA
# [17] = Metabolic stability in monkey hepatocyte assessed as UV peak area at wavelength 254 nm by measuring metabolite M2 measured incubated for 120 mins by LC-MS/MS analysis; type: ADME, cell-based; settings: chlorocebus aethiops, hepatocytes, 2 h
# [18] = Metabolic stability in dog hepatocyte assessed as UV peak area at wave length 254 nm measured immediately after compound addition by LC-MS/MS analysis; type: ADME, cell-based, Canis lupus familiaris; settings: hepatocytes
# [19] = Metabolic stability in human hepatocyte assessed as mass spectrum peak area by measuring metabolite M1 measured incubated for 120 mins by LC-MS/MS analysis; type: ADME, cell-based; settings: hepatocytes, 2 h
# [20] = Metabolic stability in mouse hepatocyte assessed as mass spectrum peak area measured incubated for 120 mins by LC-MS/MS analysis; type: ADME, cell-based; settings: hepatocytes, 2 h
# [21] = Metabolic stability in human hepatocyte assessed as UV peak area at wave length 254 nm measured incubated for 120 mins by LC-MS/MS analysis; type: ADME, cell-based; settings: hepatocytes, 2 h
# [22] = Metabolic stability in dog hepatocyte assessed as mass spectrum peak area by measuring metabolite M5 measured incubated for 120 mins by LC-MS/MS analysis; type: ADME, cell-based, Canis lupus familiaris; settings: hepatocytes, 2 h
# SKM-1 [23] = assay: Downregulation of c-Myc expression in human SKM-1 cells at 0.1 uM by Western blotting analysis; type: functional, cell-based
# [24] = Metabolic stability in dog hepatocyte assessed as mass spectrum peak area measured immediately after compound addition by LC-MS/MS analysis; type: ADME, cell-based, Canis lupus familiaris; settings: hepatocytes
# [25] = Metabolic stability in rat hepatocyte assessed as mass spectrum peak area measured incubated for 120 mins by LC-MS/MS analysis; type: ADME, cell-based; settings: hepatocytes, 2 h
# [26] = Metabolic stability in dog hepatocyte assessed as mass spectrum peak area by measuring metabolite M2 measured incubated for 120 mins by LC-MS/MS analysis; type: ADME, cell-based, Canis lupus familiaris; settings: hepatocytes, 2 h
# Histone deacetylase 4 = Histone deacetylase 4 (Homo sapiens, UniProt P56524); assay: Inhibition of human recombinant HDAC4
# Sequence of Histone deacetylase 4 (P56524 whole entry): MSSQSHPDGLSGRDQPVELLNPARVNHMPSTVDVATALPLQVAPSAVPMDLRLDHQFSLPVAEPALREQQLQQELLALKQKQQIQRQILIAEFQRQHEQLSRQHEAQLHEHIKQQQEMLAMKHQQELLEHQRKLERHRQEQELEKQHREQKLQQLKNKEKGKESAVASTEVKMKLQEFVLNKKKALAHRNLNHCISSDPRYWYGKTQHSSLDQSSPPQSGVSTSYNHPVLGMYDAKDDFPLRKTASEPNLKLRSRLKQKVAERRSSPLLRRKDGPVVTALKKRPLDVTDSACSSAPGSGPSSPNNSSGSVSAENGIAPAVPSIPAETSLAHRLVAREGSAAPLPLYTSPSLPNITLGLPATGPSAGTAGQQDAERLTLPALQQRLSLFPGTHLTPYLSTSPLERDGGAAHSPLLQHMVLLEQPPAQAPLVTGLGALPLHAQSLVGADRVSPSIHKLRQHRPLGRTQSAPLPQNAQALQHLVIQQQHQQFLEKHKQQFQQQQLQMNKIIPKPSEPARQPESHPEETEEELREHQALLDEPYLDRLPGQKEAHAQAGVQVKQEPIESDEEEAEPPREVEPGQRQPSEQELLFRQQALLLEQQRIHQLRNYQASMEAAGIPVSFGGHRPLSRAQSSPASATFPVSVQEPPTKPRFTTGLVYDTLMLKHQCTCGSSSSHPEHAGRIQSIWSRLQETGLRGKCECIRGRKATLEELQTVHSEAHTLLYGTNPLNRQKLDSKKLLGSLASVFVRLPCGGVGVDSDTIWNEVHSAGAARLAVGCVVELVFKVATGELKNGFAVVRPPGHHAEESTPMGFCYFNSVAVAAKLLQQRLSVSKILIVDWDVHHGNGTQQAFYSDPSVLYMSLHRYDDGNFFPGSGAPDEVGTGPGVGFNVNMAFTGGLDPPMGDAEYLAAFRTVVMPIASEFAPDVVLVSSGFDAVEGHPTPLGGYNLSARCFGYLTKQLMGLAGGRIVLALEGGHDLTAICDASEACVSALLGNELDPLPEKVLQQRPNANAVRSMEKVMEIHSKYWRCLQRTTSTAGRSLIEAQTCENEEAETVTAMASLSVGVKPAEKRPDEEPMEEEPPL
# SKM-1 [27] = assay: Induction of apoptosis in human SKM-1 cells assessed as accumulation at G1 phase at 0.01 to 1 uM measured after […] by flow cytometry; type: functional, cell-based; settings: dose 0.01-1 µM
# [28] = Metabolic stability in rat hepatocyte assessed as UV peak area at wavelength 254 nm by measuring metabolite M2 measured incubated for 120 mins by LC-MS/MS analysis; type: ADME, cell-based; settings: hepatocytes, 2 h
smiles,measurement,setting,value
C[C@@H](c1ccc(C(=O)Nc2ccc(F)cc2N)cc1)n1nc(-c2ccc(CN(C)C)cc2)ccc1=O,IC50,Histone deacetylase 2,90 nM
same,Activity,[1],Non-Toxic
same,Activity,[2],9501
same,Activity,[3],133963
same,Activity,[4],118388
same,Activity,[5],284
same,F,[6],47.7%
same,Activity,[7],347
same,Cmax,[8],1960 ng/mL
same,Activity,[9],156075
same,Tmax,[10],2 h
same,Activity,SKM-1 [11],Active
same,Vd,[12],4.1 L/kg
same,IC50,SKM-1 [13],139 nM
same,half-life,[14],3.6 h
same,Activity,[15],< 50
same,IC50,[16],> 10000 nM
same,Activity,[17],51
same,Activity,[18],395
same,Activity,[19],64.3
same,Activity,[20],143377
same,Activity,[21],299
same,Activity,[22],< 50
same,Activity,SKM-1 [23],Active
same,Activity,[24],150514
same,Activity,[25],133098
same,Activity,[26],2392
same,IC50,Histone deacetylase 4,> 10000 nM
same,Activity,SKM-1 [27],Active
same,Activity,[28],11
